Experimental data reported in the supplement of paper PMC10307832.

How the values were obtained:
Test in all cases: relative viability (nuclei count vs DMSO), 5 days (fraction); higher = more cells survive
Carboplatin + Lapatinib = compound: C1CC(C1)(C(=O)O)C(=O)O.[NH2-].[NH2-].[Pt+2] [Carboplatin] + CS(=O)(=O)CCNCc1ccc(-c2ccc3ncnc(Nc4ccc(OCc5cccc(F)c5)c(Cl)c4)c3c2)o1 [Lapatinib] (partner 2 µM)
Summary of the method: (§1)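 Lung cancer cell lines were pin-tool dosed in 1536-well plates on the day after seeding, with either a lone drug or a fixed anchor-drug dose plus five library-drug doses (not always all listed) in √10 steps. Nuclei were counted on 4× images after 5 days. Relative viability is the ratio of treated-well to vehicle-well nuclei counts, with each value a median of duplicate plates.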

Carboplatin + Pictilisib = compound: C1CC(C1)(C(=O)O)C(=O)O.[NH2-].[NH2-].[Pt+2] [Carboplatin] + CS(=O)(=O)N1CCN(Cc2cc3nc(-c4cccc5[nH]ncc45)nc(N4CCOCC4)c3s2)CC1 [Pictilisib] (partner 1 µM)
Summary of the method: as §1

Carboplatin + Dasatinib = compound: C1CC(C1)(C(=O)O)C(=O)O.[NH2-].[NH2-].[Pt+2] [Carboplatin] + Cc1nc(Nc2ncc(C(=O)Nc3c(C)cccc3Cl)s2)cc(N2CCN(CCO)CC2)n1 [Dasatinib] (partner 0.075 µM)
Summary of the method: as §1

GSK126 + Trametinib = compound: CC[C@H](C)N1C=C(C2=C(C=C(C=C21)C3=CN=C(C=C3)N4CCNCC4)C(=O)NCC5=C(C=C(NC5=O)C)C)C [GSK126] + CC(=O)Nc1cccc(-n2c(=O)n(C3CC3)c(=O)c3c(Nc4ccc(I)cc4F)n(C)c(=O)c(C)c32)c1 [Trametinib] (partner 0.02 µM)
Summary of the method: as §1

Cell Line: UMC-11
- relative viability (Carboplatin + Lapatinib; first compound 0.08 µM): 1.01
- relative viability (Carboplatin + Lapatinib; first compound 0.253 µM): 0.941
- relative viability (Carboplatin + Lapatinib; first compound 0.8 µM): 1.07
- relative viability (Carboplatin + Lapatinib; first compound 2.53 µM): 1.04
- relative viability (Carboplatin + Lapatinib; first compound 8 µM): 0.847
- relative viability (Carboplatin + Pictilisib; first compound 0.08 µM): 0.779
- relative viability (Carboplatin + Pictilisib; first compound 0.253 µM): 0.777
- relative viability (Carboplatin + Pictilisib; first compound 0.8 µM): 0.76
- relative viability (Carboplatin + Pictilisib; first compound 2.53 µM): 0.78
- relative viability (Carboplatin + Pictilisib; first compound 8 µM): 0.587
- relative viability (Carboplatin + Dasatinib; first compound 0.08 µM): 0.515
- relative viability (Carboplatin + Dasatinib; first compound 0.253 µM): 0.501
- relative viability (Carboplatin + Dasatinib; first compound 0.8 µM): 0.461
- relative viability (Carboplatin + Dasatinib; first compound 2.53 µM): 0.502
- relative viability (Carboplatin + Dasatinib; first compound 8 µM): 0.491
- relative viability (GSK126 + Trametinib; first compound 0.08 µM): 0.744
- relative viability (GSK126 + Trametinib; first compound 0.253 µM): 0.774
- relative viability (GSK126 + Trametinib; first compound 0.8 µM): 0.771
- relative viability (GSK126 + Trametinib; first compound 2.53 µM): 0.714
- relative viability (GSK126 + Trametinib; first compound 8 µM): 0.728
